Values of other authors in PMC5096457 (Cell chemical biology, 2016).

What was measured:
[1] = tested on: NIH 3T3 Src−/− cells overexpressing Src (Y529F); settings: high micromolar concentrations; ref Georghiou et al., 2012
[2] = tested on: c-Kit; settings: ref DiNitto et al., 2010

**Q.** With `NC(=O)[C@@H]1CCCNC(=O)[C@H](Cc2ccc([N+](=O)[O-])cc2)NC(=O)[C@H](Cc2ccc(F)cc2)NC(=O)[C@H](CC2CCCCC2)NC(=O)/C=C/C(=O)N1` [MC25a] as the compound, how does the global tyrosine phosphorylation [1] read?
**A.** The global tyrosine phosphorylation was “decreased global tyrosine phosphorylation”.

**Q.** For `CCN(CC)CCNC(=O)c1c(C)[nH]c(/C=C2\C(=O)Nc3ccc(F)cc32)c1C` [sunitinib], which “fold increase in IC50 against activated kinase target” value [2] is on record?
**A.** Its value is 300 fold.
